According to US20250213574A1, “THERAPEUTIC COMBINATIONS COMPRISING UBIQUITIN- SPECIFIC-PROCESSING PROTEASE 1 (USP1) INHIBITORS AND CHEMOTHERAPY AGENTS” (KSQ Therapeutics, Inc., priority 2022, published 2025):
Values joined by “and” are separate entries in the source; they are usually repeats but may differ in a detail not shown here. Equal values may be shown once. Read-outs that look alike come from different tables or passages of the source.

Experiments:
Format in all cases: cell-based
ASPC1 = assay: Colony formation (CFU) assay, ASPC1; conditions: ASPC1, pancreas
Experimental: (§1) In vitro experiments were conducted using the colony formation unit (CFU) assay on various cell lines. The CFU assay involved first establishing what cell plating density enabled the development of clearly interspersed colonies on a six-well plate when left to grow for around 14 days. […] At or around day 14 when clearly interspersed colonies were visible in the DMSO-treated wells, the cells were fixed and stained using 0.1% crystal violet in 10% ethanol for 20 minutes at room temperature. The plates were imaged then the amount of crystal violet stain in each well was quantified by extracting the crystal violet into 10% acetic acid and the absorbance measured at 565 nm.
(§2) For certain cell lines, multiple IC50 values were taken, and those are separated by commas. Synergy scores are in parentheticals.

UWB1289 = assay: Colony formation (CFU) assay, UWB1289; conditions: 336 h; UWB1289, ovary; CFU ~14 days; wells with DMSO or 300 nM Compound 1; read-out: Chemotherapy nM IC50s
Experimental: as §1, §2

HPAC = assay: Colony formation (CFU) assay, HPAC; conditions: Homo sapiens, 336 h, pancreas, CFU ~14 days, wells with DMSO or 300 nM Compound 1, read-out: Chemotherapy nM IC50s
Experimental: as §1, §2

HCT15 = assay: Colony formation (CFU) assay, HCT15; conditions: Homo sapiens, HCT-15, 336 h; HCT15, colon; CFU ~14 days; wells with DMSO or 300 nM Compound 1; read-out: Chemotherapy nM IC50s
Experimental: as §1, §2

OVSAHO = assay: Colony formation (CFU) assay, OVSAHO; conditions: Homo sapiens, 336 h, ovary, CFU ~14 days, wells with DMSO or 300 nM Compound 1, read-out: Chemotherapy nM IC50s
Experimental: as §1, §2

various cell lines = assay: Colony formation (CFU) assay, summary over cell lines of Table 1; conditions: combination of USP1 inhibitor (Compound 1, 300 nM) and the chemotherapy agent
Experimental: as §1
In certain cell lines, combinations of the disclosure are synergistic. In some aspects, these combinations are determined to have a Bliss score is about 6, about 7, about 8, about 9, about 10, about 11, about 12, about 13, about 14, about 15, about 16, about 17, about 18, about 19, about 20 or about 25.

SW948 = assay: Colony formation (CFU) assay, SW948; conditions: SW948, colon; for IC50: CFU ~14 days, wells with DMSO or 300 nM Compound 1, read-out: Chemotherapy nM IC50s
Experimental: as §1, §2

COV362 = assay: Colony formation (CFU) assay, COV362; conditions: COV362, 336 h, read-out: Chemotherapy nM IC50s
Experimental: as §1, §2

CAPAN2 = assay: Colony formation (CFU) assay, CAPAN2; conditions: CAPAN2, pancreas, CFU ~14 days, wells with DMSO or 300 nM Compound 1, read-out: Chemotherapy nM IC50s
Experimental: as §1, §2

GSU = assay: Colony formation (CFU) assay, GSU; conditions: stomach, chemotherapy agent in combination with 300 nM Compound 1
Experimental: as §1, §2

KALS1 = assay: Colony formation (CFU) assay, KALS1; conditions: KALS1, nervous system; CFU ~14 days; wells with DMSO or 300 nM Compound 1; read-out: Chemotherapy nM IC50s
Experimental: as §1, §2

KU1919 = assay: Colony formation (CFU) assay, KU1919; conditions: KU1919, bladder; CFU ~14 days; wells with DMSO or 300 nM Compound 1; read-out: Chemotherapy nM IC50s
Experimental: as §1, §2

UMUC3 = assay: Colony formation (CFU) assay, UMUC3; conditions: UMUC3, bladder; CFU ~14 days; wells with DMSO or 300 nM Compound 1; read-out: Chemotherapy nM IC50s
Experimental: as §1, §2

HCC1806 = assay: Colony formation (CFU) assay, HCC1806; conditions: HCC1806, breast; CFU ~14 days; wells with DMSO or 300 nM Compound 1; read-out: Chemotherapy nM IC50s (converted)
Experimental: as §1, §2

NCIH596 = assay: Colony formation (CFU) assay, NCIH596; conditions: NCIH596, lung; CFU ~14 days; wells with DMSO or 300 nM Compound 1; read-out: Chemotherapy nM IC50s
Experimental: as §1, §2

ACCMESO1 = assay: Colony formation (CFU) assay, ACCMESO1; conditions: ACCMESO1, pleura, CFU ~14 days, wells with DMSO or 300 nM Compound 1, read-out: Chemotherapy nM IC50s
Experimental: as §1, §2

MDAMB231 = assay: Colony formation (CFU) assay, MDAMB231; conditions: MDAMB231, breast; CFU ~14 days; wells with DMSO or 300 nM Compound 1; read-out: Chemotherapy nM IC50s
Experimental: as §1, §2

647V = assay: Colony formation (CFU) assay, 647V; conditions: bladder, CFU ~14 days, wells with DMSO or 300 nM Compound 1, read-out: Chemotherapy nM IC50s
Experimental: as §1, §2

HCT116 = assay: Colony formation (CFU) assay, HCT116; conditions: HCT116, colon; CFU ~14 days; wells with DMSO or 300 nM Compound 1; read-out: Chemotherapy nM IC50s
Experimental: as §1, §2

KYSE270 = assay: Colony formation (CFU) assay, KYSE270; conditions: KYSE270, esophagus; CFU ~14 days; wells with DMSO or 300 nM Compound 1; read-out: Chemotherapy nM IC50s
Experimental: as §1, §2

SUM149PT = assay: Colony formation (CFU) assay, SUM149PT; conditions: breast, CFU ~14 days, wells with DMSO or 300 nM Compound 1, read-out: Chemotherapy nM IC50s
Experimental: as §1, §2

KYSE70 = assay: Colony formation (CFU) assay, KYSE70; conditions: KYSE70, esophagus; CFU ~14 days; wells with DMSO or 300 nM Compound 1; read-out: Chemotherapy nM IC50s
Experimental: as §1, §2

MERO14 = assay: Colony formation (CFU) assay, MERO14; conditions: 336 h, CFU ~14 days, wells with DMSO or 300 nM Compound 1, read-out: Chemotherapy nM IC50s
Experimental: as §1, §2

NCIH2452 = assay: Colony formation (CFU) assay, NCIH2452; conditions: Homo sapiens, NCI-H2452, 336 h; NCIH2452, pleura; CFU ~14 days; wells with DMSO or 300 nM Compound 1; read-out: Chemotherapy nM IC50s
Experimental: as §1, §2

NCIH1915 = assay: Colony formation (CFU) assay, NCIH1915; conditions: NCI-H1915, 336 h; NCIH1915, lung; CFU ~14 days; wells with DMSO or 300 nM Compound 1; read-out: Chemotherapy nM IC50s
Experimental: as §1, §2

A549 = assay: Colony formation (CFU) assay, A549; conditions: Homo sapiens, 336 h; A549, lung; CFU ~14 days; wells with DMSO or 300 nM Compound 1; read-out: Chemotherapy nM IC50s
Experimental: as §1, §2

MSTO211H = assay: Colony formation (CFU) assay, MSTO211H; conditions: pleura, CFU ~14 days, wells with DMSO or 300 nM Compound 1, read-out: Chemotherapy nM IC50s
Experimental: as §1, §2

MERO83 = assay: Colony formation (CFU) assay, MERO83; conditions: 336 h, CFU ~14 days, wells with DMSO or 300 nM Compound 1, read-out: Chemotherapy nM IC50s
Experimental: as §1, §2

[1] = chemotherapy agent in combination with 300 nM Compound 1

With `CC[C@@]1(O)C(=O)OCc2c1cc1n(c2=O)Cc2cc3ccccc3nc2-1` [Campto., camptothecin] the synergy score (ASPC1; [1]) was −5, the IC50 (ASPC1; Homo sapiens, 336 h, CFU ~14 days, wells with DMSO or 300 nM Compound 1, read-out: Chemotherapy nM IC50s) was 3 nM and the IC50 (UWB1289) was 18 nM. The IC50 (HPAC) was 5 nM, the IC50 (HCT15) was 5 nM and the IC50 (OVSAHO) was 177 nM. For the same compound, the “synergy of combination with USP1 inhibitor” value (various cell lines) was “synergy was detected”, the IC50 (SW948; Homo sapiens, SW948, 336 h) was 10 nM and the IC50 (SW948) was 6 nM. The synergy score (SW948; [1]) was “(−3)”, the IC50 (COV362) was 274 nM and the IC50 (CAPAN2) was 11 nM. For the same compound, the IC50 (CAPAN2; Homo sapiens, Capan-2, 336 h) was 8 nM and the synergy score (GSU) was 13.
For `CO[C@@]12[C@H](COC(N)=O)C3=C(C(=O)C(C)=C(N)C3=O)N1C[C@@H]1N[C@@H]12` [Mito. C, mitomycin C], the IC50 (KALS1) was 632 nM, the IC50 (KU1919) was 16 nM and the IC50 (UMUC3) was 18 nM and 12 nM. The IC50 (HCC1806) was 1 nM and 2 nM and < 1 nM, the IC50 (NCIH596) was 10 nM and the IC50 (ACCMESO1) was 10 nM and 13 nM. The IC50 (MDAMB231) was 14 nM, the IC50 (647V) was 15 nM and the IC50 (HCT116) was 19 nM. For the same compound, the IC50 (KYSE270) was 15 nM and 11 nM, the IC50 (SUM149PT) was 5 nM and the IC50 (KYSE70) was 14 nM and 12 nM.
Compound `Nc1nc2[nH]cc(CCc3ccc(C(=O)N[C@@H](CCC(=O)O)C(=O)O)cc3)c2c(=O)[nH]1` [Pemetrex, pemetrexed] has an IC50 (MERO14) greater than 3000 nM, an IC50 (NCIH2452) of 48 nM and an IC50 (NCIH1915) of 185 nM. For the same compound, the IC50 (ACCMESO1; ACC-MESO-1, 336 h) was 172 nM, the IC50 (A549) was 6870 nM and the IC50 (MSTO211H; Homo sapiens, MSTO-211H, 336 h) was 41 nM. It also gave an IC50 (MSTO211H) of 50 nM and an IC50 (MERO83) greater than 3000 nM.
